Data as given in patent US9579314B2 (priority 2015, dated 2017).

Experiments:
Human M3 receptor = Human M3 receptor (Homo sapiens, UniProt P20309); conditions: read-out: M3 binding affinity
Human β2 adrenoceptor = Human β2 adrenoceptor (Homo sapiens, UniProt P07550); conditions: read-out: B2 binding affinity
Chain of Human β2 adrenoceptor (P07550 whole entry): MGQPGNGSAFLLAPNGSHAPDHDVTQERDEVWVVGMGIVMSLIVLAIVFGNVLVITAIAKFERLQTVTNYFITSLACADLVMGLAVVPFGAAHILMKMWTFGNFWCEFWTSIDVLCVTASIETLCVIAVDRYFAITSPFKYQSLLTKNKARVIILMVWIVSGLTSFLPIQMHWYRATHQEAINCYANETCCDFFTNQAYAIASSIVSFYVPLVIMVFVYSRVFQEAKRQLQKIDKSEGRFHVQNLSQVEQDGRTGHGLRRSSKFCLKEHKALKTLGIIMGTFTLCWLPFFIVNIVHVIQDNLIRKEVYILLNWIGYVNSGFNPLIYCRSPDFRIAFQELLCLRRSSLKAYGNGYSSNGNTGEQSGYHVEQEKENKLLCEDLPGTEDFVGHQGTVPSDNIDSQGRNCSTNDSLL

Chain of Human M3 receptor (P20309 whole entry): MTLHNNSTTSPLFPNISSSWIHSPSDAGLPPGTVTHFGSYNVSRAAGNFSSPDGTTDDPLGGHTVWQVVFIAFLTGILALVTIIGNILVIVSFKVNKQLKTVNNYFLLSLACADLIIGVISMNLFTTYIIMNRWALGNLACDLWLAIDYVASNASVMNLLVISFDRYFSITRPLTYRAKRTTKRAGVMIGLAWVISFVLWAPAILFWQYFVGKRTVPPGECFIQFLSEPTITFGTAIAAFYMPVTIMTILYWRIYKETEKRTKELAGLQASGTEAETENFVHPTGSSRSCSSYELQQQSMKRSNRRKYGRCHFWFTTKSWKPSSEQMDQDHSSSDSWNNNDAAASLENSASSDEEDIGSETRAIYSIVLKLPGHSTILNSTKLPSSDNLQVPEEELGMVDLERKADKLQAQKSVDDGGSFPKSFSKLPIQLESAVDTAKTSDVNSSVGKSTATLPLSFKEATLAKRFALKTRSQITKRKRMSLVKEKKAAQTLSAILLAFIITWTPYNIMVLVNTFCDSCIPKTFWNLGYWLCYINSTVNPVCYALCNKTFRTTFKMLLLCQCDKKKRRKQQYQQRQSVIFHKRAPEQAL

Row | SMILES | IC50 (Human M3 receptor) [nM] | IC50 (Human β2 adrenoceptor) [nM]
1 | Cc1ccc(C(O)(C(=O)OCC2CCN(Cc3ccccc3)CC2)c2cccc(OCCCCCNC[C@H](O)c3ccc(O)c4[nH]c(=O)ccc34)c2)cc1 (stereo partly drawn) [Compound 2, (1-benzylpiperidin-4-yl)methyl 2-hydroxy-2-(3-((5-(((R)-2-hydroxy-2-(8-hydroxy-2-oxo-1,2-dihydroquinolin-5-yl)ethyl)amino)pentyl)oxy)phenyl)-2-(p-tolyl)acetate] | 0.3 to 3 | 0.3 to 3
2 | O=C(OCC1CCN(Cc2ccccc2)CC1)C(O)(c1ccc(F)cc1)c1cccc(OCCCCCNC[C@H](O)c2ccc(O)c3[nH]c(=O)ccc23)c1 (stereo partly drawn) [Compound 3, (1-benzylpiperidin-4-yl)methyl 2-(4-fluorophenyl)-2-hydroxy-2-(3-((5-(((R)-2-hydroxy-2-(8-hydroxy-2-oxo-1,2-dihydroquinolin-5-yl)ethyl)amino)pentyl)oxy)phenyl)acetate] | 0.3 to 3 | < 0.3
3 | O=C(OCC1CCN(Cc2ccccc2)CC1)C(O)(c1cccc(F)c1)c1cccc(OCCCCCNC[C@H](O)c2ccc(O)c3[nH]c(=O)ccc23)c1 (stereo partly drawn) [Compound 4, (1-benzylpiperidin-4-yl)methyl 2-(3-fluorophenyl)-2-hydroxy-2-(3-((5-(((R)-2-hydroxy-2-(8-hydroxy-2-oxo-1,2-dihydroquinolin-5-yl)ethyl)amino)pentyl)oxy)phenyl)acetate] | 0.3 to 3 | < 0.3
4 | Cc1cccc(C(O)(C(=O)OCC2CCN(Cc3ccccc3)CC2)c2cccc(OCCCCCNC[C@H](O)c3ccc(O)c4[nH]c(=O)ccc34)c2)c1 (stereo partly drawn) [Compound 5, (1-benzylpiperidin-4-yl)methyl 2-hydroxy-2-(3-((5-(((R)-2-hydroxy-2-(8-hydroxy-2-oxo-1,2-dihydroquinolin-5-yl)ethyl)amino)pentyl)oxy)phenyl)-2-(m-tolyl)acetate] | 0.3 to 3 | 0.3 to 3
5 | O=C(OCC1CCN(Cc2ccccc2)CC1)C(O)(c1cccc(OCCCCCNC[C@H](O)c2ccc(O)c3[nH]c(=O)ccc23)c1)c1ccccc1Cl (stereo partly drawn) [Compound 6, (1-benzylpiperidin-4-yl)methyl 2-(2-chlorophenyl)-2-hydroxy-2-(3-((5-(((R)-2-hydroxy-2-(8-hydroxy-2-oxo-1,2-dihydroquinolin-5-yl)ethyl)amino)pentyl)oxy)phenyl)acetate] | > 3 | < 0.3
6 | Cc1ccccc1C(O)(C(=O)OCC1CCN(Cc2ccccc2)CC1)c1cccc(OCCCCCNC[C@H](O)c2ccc(O)c3[nH]c(=O)ccc23)c1 (stereo partly drawn) [Compound 7, (1-benzylpiperidin-4-yl)methyl 2-hydroxy-2-(3-((5-(((R)-2-hydroxy-2-(8-hydroxy-2-oxo-1,2-dihydroquinolin-5-yl)ethyl)amino)pentyl)oxy)phenyl)-2-(o-tolyl)acetate] | > 3 | 0.3 to 3
7 | CCc1ccccc1C(O)(C(=O)OCC1CCN(Cc2ccccc2)CC1)c1cccc(OCCCCCNC[C@H](O)c2ccc(O)c3[nH]c(=O)ccc23)c1 (stereo partly drawn) [Compound 8, (1-benzylpiperidin-4-yl)methyl 2-(2-ethylphenyl)-2-hydroxy-2-(3-((5-(((R)-2-hydroxy-2-(8-hydroxy-2-oxo-1,2-dihydroquinolin-5-yl)ethyl)amino)pentyl)oxy)phenyl)acetate] | > 3 | 0.3 to 3
8 | O=C(OCC1CCN(Cc2ccccc2)CC1)C(O)(c1cccc(OCCCCCNC[C@H](O)c2ccc(O)c3[nH]c(=O)ccc23)c1)c1cccs1 (stereo partly drawn) [Compound 9, (1-benzylpiperidin-4-yl)methyl 2-hydroxy-2-(3-((5-(((R)-2-hydroxy-2-(8-hydroxy-2-oxo-1,2-dihydroquinolin-5-yl)ethyl)amino)pentyl)oxy)phenyl)-2-(thiophen-2-yl)acetate] | 0.3 to 3 | < 0.3
9 | O=C(OCC1CCN(Cc2ccccc2)CC1)C(O)(c1cccc(OCCCCCNC[C@H](O)c2ccc(O)c3[nH]c(=O)ccc23)c1)C1CCCCC1 (stereo partly drawn) [Compound 10, (1-benzylpiperidin-4-yl)methyl 2-cyclohexyl-2-hydroxy-2-(3-((5-(((R)-2-hydroxy-2-(8-hydroxy-2-oxo-1,2-dihydroquinolin-5-yl)ethyl)amino)pentyl)oxy)phenyl)acetate] | 0.3 to 3 | 0.3 to 3
10 | CCc1cccc(C(O)(C(=O)OCC2CCN(Cc3ccccc3)CC2)c2cccc(OCCCCCNC[C@H](O)c3ccc(O)c4[nH]c(=O)ccc34)c2)c1 (stereo partly drawn) [Compound 11, (1-benzylpiperidin-4-yl)methyl 2-(3-ethylphenyl)-2-hydroxy-2-(3-((5-(((R)-2-hydroxy-2-(8-hydroxy-2-oxo-1,2-dihydroquinolin-5-yl)ethyl)amino)pentyl)oxy)phenyl)acetate] | < 0.3 | < 0.3
11 | O=C(OCC1CCN(Cc2ccccc2)CC1)[C@](O)(c1ccccc1)c1cccc(OCCCCCNC[C@H](O)c2ccc(O)c3[nH]c(=O)ccc23)c1 [Compound 13, (S)-(1-Benzylpiperidin-4-yl)methyl 2-hydroxy-2-(3-((5-(((R)-2-hydroxy-2-(8-hydroxy-2-oxo-1,2-dihydroquinolin-5-yl)ethyl)amino)pentyl)oxy)phenyl)-2-phenylacetate] | < 0.3 | < 0.3
12 | O=C(OCC1CCN(Cc2ccccc2)CC1)[C@@](O)(c1ccccc1)c1cccc(OCCCCCNC[C@H](O)c2ccc(O)c3[nH]c(=O)ccc23)c1 [Compound 14, (R)-(1-benzylpiperidin-4-yl)methyl 2-hydroxy-2-(3-((5-(((R)-2-hydroxy-2-(8-hydroxy-2-oxo-1,2-dihydroquinolin-5-yl)ethyl)amino)pentyl)oxy)phenyl)-2-phenylacetate] | > 3 | < 0.3
13 | CN1CCC(COC(=O)[C@](O)(c2ccccc2)c2cccc(OCCCCCNC[C@H](O)c3ccc(O)c4[nH]c(=O)ccc34)c2)CC1 [Compound 23, (S)-(1-methylpiperidin-4-yl)methyl 2-hydroxy-2-(3-((5-(((R)-2-hydroxy-2-(8-hydroxy-2-oxo-1,2-dihydroquinolin-5-yl)ethyl)amino)pentyl)oxy)phenyl)-2-phenylacetate] | 0.3 to 3 | 0.3 to 3
14 | CN1CCC(COC(=O)[C@@](O)(c2ccccc2)c2cccc(OCCCCCNC[C@H](O)c3ccc(O)c4[nH]c(=O)ccc34)c2)CC1 [Compound 24, (R)-(1-methylpiperidin-4-yl)methyl 2-hydroxy-2-(3-((5-(((R)-2-hydroxy-2-(8-hydroxy-2-oxo-1,2-dihydroquinolin-5-yl)ethyl)amino)pentyl)oxy)phenyl)-2-phenylacetate] | > 3 | < 0.3
15 | O=C(OCC1CCN(Cc2ccccc2)CC1)[C@](O)(c1ccccc1)c1cccc(OCCCCCCCNC[C@H](O)c2ccc(O)c3[nH]c(=O)ccc23)c1 [Compound 28, (S)-(1-benzylpiperidin-4-yl)methyl 2-hydroxy-2-(3-((7-(((R)-2-hydroxy-2-(8-hydroxy-2-oxo-1,2-dihydroquinolin-5-yl)ethyl)amino)heptyl)oxy)phenyl)-2-phenylacetate] | 0.3 to 3 | 0.3 to 3
16 | O=C(c1ccc(CCNC[C@H](O)c2ccc(O)c3[nH]c(=O)ccc23)cc1)N1CCC(COc2cccc([C@](O)(C(=O)OCC3CCN(Cc4ccccc4)CC3)c3ccccc3)c2)CC1 [Compound 31, (S)-(1-Benzylpiperidin-4-yl)methyl 2-hydroxy-2-(3-((1-(4-(2-(((R)-2-hydroxy-2-(8-hydroxy-2-oxo-1,2-dihydroquinolin-5-yl)ethyl)amino)ethyl)benzoyl)piperidin-4-yl)methoxy)phenyl)-2-phenylacetate] | < 0.3 | < 0.3
